In patent publication US9006221B2, “Method of modulating ship activity” (H. Lee Moffitt Cancer Center and Reserach Institute, Inc., priority 2008, dated 2015):

Assays:
[1] = tested on: human multiple myeloma cell lines U266, RPMI8226 and OPM2; assay: MTT dye assay of multiple myeloma cell lines; assay type: cell-based; settings: increasing concentrations
Description: (A) SHIP1 expression in human multiple myeloma (MM) cell lines as presented in the western blot analysis. SHIP is expressed in the human multiple myeloma cell lines U266, RPMI8226 and OPM2. The expression in the MM cell lines is shown relative to that observed in MG63 and HS-5 cell lines. MG63 is an osteosarcoma cell line, and HS-5 is a human bone marrow stroma cell line. […] Actin is provided as a control. (B) Results of MTT dye assays of MM cell lines. […] RUO is “relative units optical”. (C) Apoptosis in OPM and RPMI cell lines at increasing concentrations of 3α-aminocholestane.

SHIP1 = molecular target: T1, SHIP1 (Mus musculus, UniProt Q9ES52); assay: Fluorescence polarization (FP) assay of SHIP1 enzymatic activity; assay type: biochemical; settings: 0.1 μg of recombinant SHIP1, FP assay
T1 construct: The asterisk in lanes 1 and 3 indicates the ˜145 kD full-length SHIP protein; His tag (C); made in house; host or cells: E. coli Rosetta-Gami 2 (DE3) pLys
T1 sequence (Q9ES52 1-1191): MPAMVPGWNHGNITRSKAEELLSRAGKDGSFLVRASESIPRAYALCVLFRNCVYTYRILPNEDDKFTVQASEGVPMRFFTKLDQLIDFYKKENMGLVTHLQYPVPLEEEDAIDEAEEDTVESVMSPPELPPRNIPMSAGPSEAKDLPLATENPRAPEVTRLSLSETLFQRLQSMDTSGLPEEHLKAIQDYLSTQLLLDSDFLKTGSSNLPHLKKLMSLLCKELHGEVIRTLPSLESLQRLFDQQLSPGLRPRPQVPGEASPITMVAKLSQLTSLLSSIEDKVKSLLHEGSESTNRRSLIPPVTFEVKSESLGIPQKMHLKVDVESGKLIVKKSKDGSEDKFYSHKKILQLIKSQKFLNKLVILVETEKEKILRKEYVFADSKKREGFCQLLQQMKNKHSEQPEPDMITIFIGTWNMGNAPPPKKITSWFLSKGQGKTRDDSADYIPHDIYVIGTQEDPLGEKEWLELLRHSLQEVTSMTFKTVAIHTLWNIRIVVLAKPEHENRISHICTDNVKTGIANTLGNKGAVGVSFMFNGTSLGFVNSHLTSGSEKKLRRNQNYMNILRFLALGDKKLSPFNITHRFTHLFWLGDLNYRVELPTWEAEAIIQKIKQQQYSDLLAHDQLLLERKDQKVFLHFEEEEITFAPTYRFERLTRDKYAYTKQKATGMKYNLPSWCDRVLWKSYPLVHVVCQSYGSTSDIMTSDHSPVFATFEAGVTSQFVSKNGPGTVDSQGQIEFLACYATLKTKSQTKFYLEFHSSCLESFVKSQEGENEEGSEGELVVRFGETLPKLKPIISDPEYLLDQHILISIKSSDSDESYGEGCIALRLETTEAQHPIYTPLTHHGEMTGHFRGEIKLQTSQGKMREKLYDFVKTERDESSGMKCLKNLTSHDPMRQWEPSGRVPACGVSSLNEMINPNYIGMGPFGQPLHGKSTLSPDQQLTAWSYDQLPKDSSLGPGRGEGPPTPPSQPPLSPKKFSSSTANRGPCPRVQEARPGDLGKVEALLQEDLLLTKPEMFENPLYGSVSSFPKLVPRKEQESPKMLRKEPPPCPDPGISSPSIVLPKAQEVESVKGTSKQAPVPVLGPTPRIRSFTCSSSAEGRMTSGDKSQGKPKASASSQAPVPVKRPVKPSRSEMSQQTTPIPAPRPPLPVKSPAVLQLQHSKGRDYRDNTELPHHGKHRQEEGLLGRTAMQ

## CC(C)CCC[C@@H](C)[C@H]1CC[C@H]2[C@@H]3CC[C@H]4C[C@H](N)CC[C@]4(C)[C@H]3CC[C@]12C [NSC23922, (3R,5S,8R,9S,10S,13R,14S,17R)-10,13-dimethyl-17-[(2R)-6-methylheptan-2-yl]-2,3,4,5,6,7,8,9,11,12,14,15,16,17-tetradecahydro-1H-cyclopenta[a]phenanthren-3-amine]
[1]
  viability of multiple myeloma cell lines: decrease in viability
SHIP1
  inhibition at 10 µM: 50%
